Source: US10316319B2, “Composition for diagnosis of liver metastasis of colorectal cancer and the use thereof” (SAMSUNG LIFE PUBLIC WELFARE FOUNDATION, priority 2010, dated 2019)

Key:
Type in all cases: cell-based
[1] = system: HCT116 colorectal cancer cells; assay: Western blot of EMT markers and CCR3 in HCT116 cells; settings: HCT116 cells stably transfected with GFP or CCL7, with or without SB328437; Western blot (FIG. 5D)
Description: For the Western blot, lysates from transfected HCT116 cells were obtained using Pro-prep buffer (Intron Biotechnology, Seoul, Korea), including protease inhibitors. 20-60 μg the protein extract was resolved by SDS-PAGE and transferred to polyvinylidene fluoride (PVDF) membranes and probed with antibodies against CCR1, CCR2, CCR3, CCR5, CCL7, and β-actin, as a loading control. Secondary antibodies conjugated to horseradish peroxidase were used to image the membrane.
HCT116 colorectal cancer cells were transfected with siRNA to lower expression of the CCL7 gene, and protein expression of CCL7, E-cadherin, Snail, vimentin, twist, and β-actin, as a loading control, was determined by Western blot analysis.
HCT116 colorectal cancer cells were also treated with anti-CCL7 antibodies and the CCR3 expression in cell extracts was determined via Western blot analysis.
HCT116 colorectal cancer cells were stably transfected with GFP (control) or CCL7 and the expression of E-cadherin, α-SMA, vimentin, twist, and β-actin, as a loading control, was determined via Western blot analysis.

[2] = system: HCT116 colorectal cancer cells; assay: Transwell migration and matrigel invasion assay of HCT116 cells; settings: GFP and CCL7 transfected HCT116 treated with SB328437 (FIG. 6C)
Description: To explore the role of CCL7 on migration and invasion of cancer cells, HCT116 colorectal cancer cells were transiently transfected with siRNA to the CCL7 gene or stably transfected with GFP (control) or CCL7. The cells (5×10^4) were loaded into the migration and invasion chambers in a 24-well plate in serum-free RPMI media. The lower chambers were supplemented with 10% FBS and the cells were incubated for 24 or 48 hours. The cells were stained with calcein or hematoxylin-eosin and mounted. Cell migration and invasion was quantified via fluorescence.

[3] = system: HCT116 colorectal cancer cells; assay: Western blot of ERK/JNK activation (pERK, pJNK) in HCT116 cells; settings: stably transfected HCT116, 20 μM SB328437 (FIG. 7B)
Description: To explore the role of CCL7 signaling and CCR3 in the EMT-related pathway, activation of ERK and JNK was measured. HCT116 colorectal cancer cells were transiently transfected with siRNA against CCL7 or stably transfected with GFP (control) or CCL7. The stably transfected cells were incubated in the presence or absence of 20 μM SB328437. Cell lysates were obtained as above and assayed via Western blot analysis for pERK, total ERK, pJNK, total JNK, and β-actin.

`COC(=O)[C@H](Cc1ccc([N+](=O)[O-])cc1)NC(=O)c1cccc2ccccc12` [SB328437] was tested, and the “effect of CCL7 overexpression (reduced E-cadherin, increased α-SMA, vimentin, twist)” value [1] was “blocked”, the “CCL7-induced migration and invasion of the colorectal cancer cells” value [2] was “blocked” and the “phosphorylation of ERK and JNK increased by CCL7 overexpression” value [3] was “inhibited”.
